The record followed here is patent US20200237871A1, “METHODS FOR MITIGATING LIVER INJURY AND PROMOTING LIVER HYPERTROPHY, REGENERATION AND CELL ENGRAFTMENT IN CONJUNCTION WITH RADIATION AND/OR RADIOMIMETIC TREATMENTS” (Janssen Pharmaceutica NV, priority 2019, published 2020).

In assay [1] the test system is factor VIII (FVIII). Put plainly: Factor VIII production in plasma and liver of Hemophilia A mice (ELISA, Western blot, mRNA) (Example 6). The format is in vivo, mouse. An excerpt: 8-16-week-old male C57/BL6 mice, 8-16-week-old female and male B6129SF2/J mice (donor for isolating LSECs) and 8-16-week-old female and male Hemophilia mice (F^8tm1Kaz) mice were used in this study. Mice were housed in groups of up to 5 in micro-isolator cages on stainless steel racks (Allentown, Inc., Allentown, N.J.) with a total floor space of 500 cm^2. The cages utilized an external water bottle and a dual feeder rack (Fisher Scientific, Hampton, N.H.). These cages were stored in the storage rack which provided temperature, humidity, and ventilation control to each individual cage (Allentown, Inc.). Bed-o'Cobs ⅛″ (Fisher Scientific) were used as bedding material in each cage.
The methods were identical to Experiment 5 as described above; including the preparation of test articles (solutions of RWJ-800088 and AdHGF), isolation and transplant of LSECs, and Hepatic irradiation.
The livers of mice were irradiated at 50 Gy by using an X-ray irradiator (SARRP). At 24 hours post-irradiation, the LSECs (1×10^6 cells/mouse) were injected to the mouse through tail vein. […]
A tail bleeding test was performed in which the extent of bleeding and time to clotting over the course of 30 minutes was evaluated. FVIII protein levels were evaluated by Western blot and mRNA profiling in the blood and liver to evaluate the extent to which there was engraftment of functioning LSECs that produce FVIII. […]
(In an ELISA, binding on a coated surface is turned into a signal by an enzyme label.)

The test system of assay [2] is DPPIV−/− knockout mice. Put plainly: Relative change of dissected liver lobe size after hepatic irradiation (Example 2). The format is in vivo, mouse. The method, then:
8-12-week-old male and female Di-peptyl peptidase IV (DPPIV) −/− knockout mice and 8-12-week-old male and female C57Bl6 mice were used in this study. Animals were weighed in the beginning of the experiment and before tissue collection. All animals were housed in the Institute for Animal Studies at Albert Einstein College of medicine and fed regular rodent chow. All experiments were performed to according to protocols approved by Institutional Animal Care and Use Committee at Albert Einstein College of Medicine. Animals were made cirrhotic using CCl4 administration (intraperitoneal [IP] injections twice a week for at least 11 weeks).
Image-guided external beam irradiation was performed using a small animal radiation research platform (SARRP, Xstrahl Inc., Suwanee, Ga.). Mice were given gastrografin contrast through gavage to improve visualization of the gastrointestinal (GI) tract. After approximately 2 minutes, mice were positioned on a tubular couch and anesthetized with ˜2% Isofluorane (Isothesia, USP) in 2 L/min pure oxygen. A cone-beam computed tomography (CBCT) scan was acquired and a treatment plan irradiating the median lobe and right lobe was generated using the MuriPlan software. […]

As to “methoxypolyethyleneglycol20000-propionyl-L-Isoleucyl-L-Glutamyl-Glycyl-L-Prolyl-L-Threonyl-L-Leucyl-L-Arginyl-L-Glutaminyl-L-2-Naphthylalanyl-L-Leucyl-L-Alanyl-L-Alanyl-L-Arginyl-Sarcosyl-Ne-(methoxypolyethyleneglycol20000-propionyl-L-Isoleucyl-L-Glutamyl-Glycyl-L-Prolyl-L-Threonyl-L-Leucyl-L-Arginyl-L-Glutaminyl-L-2-Naphthyl alanyl-L-Leucyl-L-Alanyl-L-Alanyl-L-Arginyl-Sarcosyl-)-Lysinamide [RWJ-800088]”, in assay [1] (HIR+LSECs+RWJ-800088 treated hemophilia mice), the “levels of Factor VIII mRNA and activated protein in plasma and liver” value is on record as “increased levels”. Moreover, the “expression of factor VIII (FVIII) by ELISA in plasma and liver compared to non-treated Haemophilia A mice” value in assay [1] (HIR+LSECs+drug) was “prolonged expression”. In addition, in assay [2] (2-months post-HIR, HIR then LSECs+/−RWJ-800088 at 24-hours post-HIR), the “volume of the non-irradiated left lobe” value is listed as “trend for an increase”. For the same substance, in assay [2] (RWJ-800088 and HIR only), the “size of the irradiated lobes (median and right)” value is “trend for a reduction”.
